Drawing on patent publication US10100058B2, “Fused heterocyclic compounds as CaM kinase inhibitors” (Gilead Sciences, Inc., priority 2016, dated 2018), this text covers IC50 for 27 molecules.

The assay deals with recombinant CaMKIIδ (Homo sapiens (Human), UniProt Q13557). As to the kind of experiment: CaMKIIδ biochemical assay (HTRF). To be noted: 10 pM CaMKIIδ, 110 nM calmodulin, 12 μM ATP, 1 hour; read-out: CAMKIID-HTRF-384V2 (IC50 - nM). As to the method: CaMKIIδ Biochemical Assay
The biochemical activity of recombinant CaMKIIδ was measured by monitoring the phosphorylation of a target peptide using Homogenous Time Resolved Fluorescence (HTRF) technology from CisBio Bioassays.
A word on the IC50: it is the midpoint of a concentration-inhibition curve. As for `O=C(NC[C@@H]1CCCN1)c1ccnc(-c2cnn3ccc(-c4cccs4)nc23)c1` [Example 34, (S)—N-(pyrrolidin-2-ylmethyl)-2-(5-(thiophen-2-yl)pyrazolo[1,5-a]pyrimidin-3-yl)isonicotinamide], the IC50 amounted to 12.4 nM.

Consider `CN1CCC[C@H]1CNC(=O)c1ccnc(-c2cnn3ccc(-c4cccs4)nc23)c1` [Example 35, (S)—N-((1-methylpyrrolidin-2-yl)methyl)-2-(5-(thiophen-2-yl)pyrazolo[1,5-a]pyrimidin-3-yl)isonicotinamide], for which the 50% inhibitory concentration (IC50) is 95.5 nM.

With `CCN(CC)C(C)CNC(=O)c1ccnc(-c2cnn3ccc(-c4ccccc4)nc23)c1` (stereo not drawn) [Example 37, N-(2-(diethylamino)propyl)-2-(5-phenylpyrazolo[1,5-a]pyrimidin-3-yl)isonicotinamide], the IC50 came to 7.03 nM.

For the molecule `CCN(CC)[C@@H](C)CNC(=O)c1ccnc(-c2cnn3ccc(-c4ccccc4)nc23)c1` [Example 38, (S)—N-(2-(diethylamino)propyl)-2-(5-phenylpyrazolo[1,5-a]pyrimidin-3-yl)isonicotinamide], the IC50 amounted to 2.08 nM.

`CN(C)CCNC(=O)c1ccnc(-c2cnn3ccc(-c4ccccc4)nc23)c1` [Example 39, N-(2-(dimethylamino)ethyl)-2-(5-phenylpyrazolo[1,5-a]pyrimidin-3-yl)isonicotinamide]: the half-inhibitory concentration (IC50) is 137 nM.

Take `CC1(C)CNC1CNC(=O)c1ccnc(-c2cnn3ccc(-c4ccccc4)nc23)c1` (stereo not drawn) [Example 41, N-((3,3-dimethylazetidin-2-yl)methyl)-2-(5-phenylpyrazolo[1,5-a]pyrimidin-3-yl)isonicotinamide]: the concentration for half-maximal inhibition (IC50) was 119 nM.

In the case of `CCN[C@@H](C)CNC(=O)c1ccnc(-c2cnn3ccc(-c4ccccc4)nc23)c1` [Example 42, (S)—N-(2-(ethylamino)propyl)-2-(5-phenylpyrazolo[1,5-a]pyrimidin-3-yl)isonicotinamide], the IC50 amounted to 14.4 nM.

In the case of `CC[C@]1(CNC(=O)c2ccnc(-c3cnn4ccc(-c5ccccc5)nc34)c2)CCCN1` [Example 43, (R)—N-((2-ethylpyrrolidin-2-yl)methyl)-2-(5-phenylpyrazolo[1,5-a]pyrimidin-3-yl)isonicotinamide], the IC50 worked out at 27.7 nM.

Regarding `C[C@H](N)CNC(=O)c1ccnc(-c2cnn3ccc(-c4ccccc4)nc23)c1` [Example 44, (S)—N-(2-aminopropyl)-2-(5-phenylpyrazolo[1,5-a]pyrimidin-3-yl)isonicotinamide], the IC50 worked out at 43.1 nM.

As to `CCC(C)N[C@@H](C)CNC(=O)c1ccnc(-c2cnn3ccc(-c4ccccc4)nc23)c1` (stereo partly drawn) [Example 45, N-((2S)-2-(sec-butylamino)propyl)-2-(5-phenylpyrazolo[1,5-a]pyrimidin-3-yl)isonicotinamide], the IC50 was 77.4 nM.

In the case of `CCC(N)CNC(=O)c1ccnc(-c2cnn3ccc(-c4ccccc4)nc23)c1` (stereo not drawn) [Example 46, N-(2-aminobutyl)-2-(5-phenylpyrazolo[1,5-a]pyrimidin-3-yl)isonicotinamide], the IC50 is 23.7 nM.

Take `CC(C)C(N)CNC(=O)c1ccnc(-c2cnn3ccc(-c4ccccc4)nc23)c1` (stereo not drawn) [Example 47, N-(2-amino-3-methylbutyl)-2-(5-phenylpyrazolo[1,5-a]pyrimidin-3-yl)isonicotinamide]: the IC50 came to 35.3 nM.

Turning to `CCCC(N)CNC(=O)c1ccnc(-c2cnn3ccc(-c4ccccc4)nc23)c1` (stereo not drawn) [Example 48, N-(2-aminopentyl)-2-(5-phenylpyrazolo[1,5-a]pyrimidin-3-yl)isonicotinamide], the IC50 amounted to 25.7 nM.

Take `C[C@@H](CNC(=O)c1ccnc(-c2cnn3ccc(-c4ccccc4)nc23)c1)NCc1ncccn1` [Example 49, (S)-2-(5-phenylpyrazolo[1,5-a]pyrimidin-3-yl)-N-(2-((pyrimidin-2-ylmethyl)amino)propyl) isonicotinamide]: the IC50 was 391 nM.

As to `CCC(CNC(=O)c1ccnc(-c2cnn3ccc(-c4ccccc4)nc23)c1)NCC1CC1` (stereo not drawn) [Example 50, N-(2-((cyclopropylmethyl)amino)butyl)-2-(5-phenylpyrazolo[1,5-a]pyrimidin-3-yl)isonicotinamide], the half-maximal inhibitory concentration (IC50) turned out to be 8.52 nM.

Regarding `CCCNC(CC)CNC(=O)c1ccnc(-c2cnn3ccc(-c4ccccc4)nc23)c1` (stereo not drawn) [Example 51, 2-(5-phenylpyrazolo[1,5-a]pyrimidin-3-yl)-N-(2-(propylamino)butyl)isonicotinamide], the concentration for half-maximal inhibition (IC50) is 9.61 nM.

For `CC(C)C(CNC(=O)c1ccnc(-c2cnn3ccc(-c4ccccc4)nc23)c1)NCC1CC1` (stereo not drawn) [Example 52, N-(2-((cyclopropylmethyl)amino)-3-methylbutyl)-2-(5-phenylpyrazolo[1,5-a]pyrimidin-3-yl)isonicotinamide], the IC50 is 4.98 nM.

Turning to `CCCNC(CNC(=O)c1ccnc(-c2cnn3ccc(-c4ccccc4)nc23)c1)C(C)C` (stereo not drawn) [Example 53, N-(3-methyl-2-(propylamino)butyl)-2-(5-phenylpyrazolo[1,5-a]pyrimidin-3-yl)isonicotinamide], the IC50 was 4.79 nM.

In the case of `CCNC(CC)CNC(=O)c1ccnc(-c2cnn3ccc(-c4ccccc4)nc23)c1` (stereo not drawn) [Example 54, N-(2-(ethylamino)butyl)-2-(5-phenylpyrazolo[1,5-a]pyrimidin-3-yl)isonicotinamide], the half-inhibitory concentration (IC50) amounted to 13.4 nM.

For `CCNC(CNC(=O)c1ccnc(-c2cnn3ccc(-c4ccccc4)nc23)c1)C(C)C` (stereo not drawn) [Example 55, N-(2-(ethylamino)-3-methylbutyl)-2-(5-phenylpyrazolo[1,5-a]pyrimidin-3-yl)isonicotinamide], the IC50 came out at 12 nM.

Consider `N[C@@H](CO)CNC(=O)c1ccnc(-c2cnn3ccc(-c4ccccc4)nc23)c1` [Example 57, (R)—N-(2-amino-3-hydroxypropyl)-2-(5-phenylpyrazolo[1,5-a]pyrimidin-3-yl)isonicotinamide], for which the 50% inhibitory concentration (IC50) is 26.5 nM.

In the case of `CCN[C@@H](CO)CNC(=O)c1ccnc(-c2cnn3ccc(-c4ccccc4)nc23)c1` [Example 59, (R)—N-(2-(ethylamino)-3-hydroxypropyl)-2-(5-phenylpyrazolo[1,5-a]pyrimidin-3-yl)isonicotinamide], the IC50 stood at 5.34 nM.

Regarding `CCCC(CNC(=O)c1ccnc(-c2cnn3ccc(-c4ccccc4)nc23)c1)N(CC)CC` (stereo not drawn) [Example 60, N-(2-(diethylamino)pentyl)-2-(5-phenylpyrazolo[1,5-a]pyrimidin-3-yl)isonicotinamide], the concentration for half-maximal inhibition (IC50) turned out to be 2.35 nM.

Regarding `CCN(CC)C(CNC(=O)c1ccnc(-c2cnn3ccc(-c4ccccc4)nc23)c1)C(C)C` (stereo not drawn) [Example 61, N-(2-(diethylamino)-3-methylbutyl)-2-(5-phenylpyrazolo[1,5-a]pyrimidin-3-yl)isonicotinamide], the IC50 amounted to 3.6 nM.

With `CC(CN)NC(=O)c1ccnc(-c2cnn3ccc(-c4ccccc4)nc23)c1` (stereo not drawn) [Example 62, N-(1-aminopropan-2-yl)-2-(5-phenylpyrazolo[1,5-a]pyrimidin-3-yl)isonicotinamide], the 50% inhibitory concentration (IC50) was determined as 216 nM.

As for `CCN(CCN)C(=O)c1ccnc(-c2cnn3ccc(-c4ccccc4)nc23)c1` [Example 65, N-(2-aminoethyl)-N-ethyl-2-(5-phenylpyrazolo[1,5-a]pyrimidin-3-yl)isonicotinamide], the IC50 was 12.6 nM.

Regarding `N[C@H](CNC(=O)c1ccnc(-c2cnn3ccc(-c4ccccc4)nc23)c1)COc1ncccn1` [Example 66, (R)—N-(2-amino-3-(pyrimidin-2-yloxy)propyl)-2-(5-phenylpyrazolo[1,5-a]pyrimidin-3-yl)isonicotinamide], the IC50 was determined as 205 nM.
